Source: ChEMBL document CHEMBL3351819, “Clofazimine analogs with antileishmanial and antiplasmodial activity” (Bioorg Med Chem, 2015)

Columns and labels:
Plasmodium falciparum [1] = test: Resistance index, ratio of IC50 for chloroquine-resistant Plasmodium falciparum W2 to IC50 for chloroquine-sensitive Plasmodium falciparum D10; assay type: functional
Plasmodium falciparum [2] = test: Antiplasmodial activity against chloroquine-resistant Plasmodium falciparum W2 assessed as inhibition of parasite growth after 72 hrs by parasite lactate dehydrogenase assay; assay type: functional, organism-based; conditions: W2, 72 h
Plasmodium falciparum [3] = test: Antiplasmodial activity against chloroquine-sensitive Plasmodium falciparum D10 assessed as inhibition of parasite growth after 72 hrs by parasite lactate dehydrogenase assay; assay type: functional, organism-based; conditions: D10, 72 h
Leishmania infantum = test: Antileishmanial activity against Leishmania infantum MHOM/TN/80/IPT1 promastigotes assessed as inhibition of parasite growth after 72 hrs by MTT assay; assay type: functional, organism-based; conditions: MHOM/TN/80/IPT1, 72 h
Leishmania braziliensis = test: Antileishmanial activity against Leishmania braziliensis MHOM/IT/2006/ISS2848 promastigotes assessed as inhibition of parasite growth after 72 hrs by MTT assay; assay type: functional, organism-based; conditions: MHOM/IT/2006/ISS2848, 72 h
[4] = Selectivity index, ratio of IC50 for HMEC1 to IC50 for Leishmania braziliensis MHOM/IT/2006/ISS2848
[5] = Selectivity index, ratio of IC50 for HMEC1 to IC50 for Leishmania infantum MHOM/TN/80/IPT1
[6] = Selectivity index, ratio of IC50 for HMEC1 to IC50 for chloroquine-sensitive Plasmodium falciparum D10
[7] = Cytotoxicity against HMEC1 cells after 72 hrs by MTT assay; assay type: cell-based; conditions: Homo sapiens, HMEC-1, 72 h
[8] = Selectivity index, ratio of IC50 for HMEC1 to IC50 for chloroquine-resistant Plasmodium falciparum W2
[9] = Selectivity index, ratio of IC50 for HMEC1 to IC50 for Leishmania tropica MHOM/IT/2012/ISS3130
Leishmania tropica = test: Antileishmanial activity against Leishmania tropica MHOM/IT/2012/ISS3130 promastigotes assessed as inhibition of parasite growth after 72 hrs by MTT assay; assay type: functional, organism-based; conditions: MHOM/IT/2012/ISS3130, 72 h

In the case of c1ccc(Nc2cc3nc4ccccc4n(-c4ccccc4)c-3c/c2=N/C[C@@H]2CCCN3CCCC[C@H]23)cc1, the “Ratio IC50” value (Plasmodium falciparum [1]) is reported as 2.2, the IC50 (Plasmodium falciparum [2]) is reported as 810 nM and the IC50 (Plasmodium falciparum [3]) is reported as 370 nM.
In the case of Cl.c1ccc(Nc2cc3nc4ccccc4n(-c4ccccc4)c-3c/c2=N/CCCCC23CCCCN2CCCC3)cc1, the “Ratio IC50” value (Plasmodium falciparum [1]) is reported as 1.3, the IC50 (Leishmania infantum) is reported as 370 nM and the IC50 (Leishmania braziliensis) is reported as 170 nM. The IC50 (Plasmodium falciparum [2]) was 270 nM, the Ratio IC50 [4] was 7.2 and the Ratio IC50 [5] was 3.3. For the same molecule, the IC50 (Plasmodium falciparum [3]) was 210 nM, the Ratio IC50 [6] was 5.9 and the IC50 [7] was 1230 nM. For the same molecule, the Ratio IC50 [8] was 4.5, the Ratio IC50 [9] was 5.6 and the IC50 (Leishmania tropica) was 220 nM.
For c1ccc(Nc2cc3nc4ccccc4n(-c4ccccc4)c-3c/c2=N/CCC[C@@H]2CCCN3CCCC[C@H]23)cc1, the “Ratio IC50” value (Plasmodium falciparum [1]) was 0.5, the IC50 (Leishmania infantum) was 1590 nM and the IC50 (Plasmodium falciparum [2]) was 63 nM. The Ratio IC50 [5] was 2.8, the IC50 (Plasmodium falciparum [3]) was 120 nM and the Ratio IC50 [6] was 36.6. The IC50 [7] was 4500 nM, the Ratio IC50 [8] was 71.4 and the Ratio IC50 [9] was 1.7. It also gave an IC50 (Leishmania tropica) of 2700 nM.
For Cl.Fc1ccc(Nc2cc3nc4ccccc4n(-c4ccc(F)c(Cl)c4)c-3c/c2=N/CCCCCCC23CCCCN2CCCC3)cc1Cl, the “Ratio IC50” value (Plasmodium falciparum [1]) was 1.9, the IC50 (Leishmania infantum) was 350 nM and the IC50 (Plasmodium falciparum [2]) was 570 nM. The Ratio IC50 [5] was 3.9, the IC50 (Plasmodium falciparum [3]) was 310 nM and the Ratio IC50 [6] was 4.4. The IC50 [7] was 1350 nM, the Ratio IC50 [8] was 2.4 and the Ratio IC50 [9] was 5.5. It also gave an IC50 (Leishmania tropica) of 240 nM.
For CC(C)/N=c1\cc2n(-c3ccc(Cl)cc3)c3ccccc3nc-2cc1Nc1ccc(Cl)cc1 [CLOFAZIMINE], the “Ratio IC50” value (Plasmodium falciparum [1]) was 1.5, the IC50 (Leishmania infantum) was 4480 nM and the IC50 (Plasmodium falciparum [2]) was 7020 nM. It also gave a Ratio IC50 [5] of 4.2, an IC50 (Plasmodium falciparum [3]) of 4820 nM and a Ratio IC50 [6] of 3.9. The IC50 [7] was 18600 nM, the Ratio IC50 [8] was 2.6 and the Ratio IC50 [9] was 6.3. For the same molecule, the IC50 (Leishmania tropica) was 2960 nM.
For Cl.c1ccc(Nc2cc3nc4ccccc4n(-c4ccccc4)c-3c/c2=N/CCN2CCCC2)cc1, the “Ratio IC50” value (Plasmodium falciparum [1]) was 0.6, the IC50 (Plasmodium falciparum [2]) was 110 nM and the IC50 (Plasmodium falciparum [3]) was 180 nM. It also gave a Ratio IC50 [6] of 7.7, an IC50 [7] of 1390 nM and a Ratio IC50 [8] of 12.6. For the same molecule, the Ratio IC50 [9] was 0.1 and the IC50 (Leishmania tropica) was 12300 nM.
In the case of Cl.Fc1ccc(Nc2cc3nc4ccccc4n(-c4ccc(F)cc4)c-3c/c2=N/CCCCCCC23CCCCN2CCCC3)cc1, the “Ratio IC50” value (Plasmodium falciparum [1]) is reported as 1.2, the IC50 (Leishmania infantum) is reported as 430 nM and the IC50 (Plasmodium falciparum [2]) is reported as 340 nM. It also gave a Ratio IC50 [5] of 4.3, an IC50 (Plasmodium falciparum [3]) of 280 nM and a Ratio IC50 [6] of 6.7. For the same molecule, the IC50 [7] was 1870 nM, the Ratio IC50 [8] was 5.5 and the Ratio IC50 [9] was 5.5. It also gave an IC50 (Leishmania tropica) of 330 nM.
In the case of CN(C)CCC/N=c1/cc2n(-c3ccc(Cl)cc3)c3ccccc3nc-2cc1Nc1cccnc1, the “Ratio IC50” value (Plasmodium falciparum [1]) is reported as 0.7, the IC50 (Leishmania infantum) is reported as 410 nM and the IC50 (Plasmodium falciparum [2]) is reported as 280 nM. It also gave a Ratio IC50 [5] of 11.4, an IC50 (Plasmodium falciparum [3]) of 400 nM and a Ratio IC50 [6] of 11.7. The IC50 [7] was 4660 nM, the Ratio IC50 [8] was 16.6 and the Ratio IC50 [9] was 6.1. The IC50 (Leishmania tropica) was 770 nM.
In the case of Cl.Clc1ccc(-n2c3c/c(=N/CCCCC45CCCCN4CCCC5)c(Nc4cccnc4)cc-3nc3ccccc32)cc1, the “Ratio IC50” value (Plasmodium falciparum [1]) is reported as 0.8, the IC50 (Leishmania infantum) is reported as 340 nM and the IC50 (Plasmodium falciparum [2]) is reported as 180 nM. The Ratio IC50 [5] was 6.9, the IC50 (Plasmodium falciparum [3]) was 220 nM and the Ratio IC50 [6] was 10.6. For the same molecule, the IC50 [7] was 2330 nM, the Ratio IC50 [8] was 12.9 and the Ratio IC50 [9] was 6.9. The IC50 (Leishmania tropica) was 340 nM.
For Cl.Clc1ccc(Nc2cc3nc4ccccc4n(-c4ccc(Cl)cc4)c-3c/c2=N/CC23CCCN2CCC3)cc1, the “Ratio IC50” value (Plasmodium falciparum [1]) was 1.2, the IC50 (Plasmodium falciparum [2]) was 750 nM and the IC50 (Plasmodium falciparum [3]) was 620 nM. For the same molecule, the Ratio IC50 [6] was 5.8, the IC50 [7] was 3570 nM and the Ratio IC50 [8] was 4.8. For the same molecule, the Ratio IC50 [9] was 0.5 and the IC50 (Leishmania tropica) was 7440 nM.
With Cl.Fc1ccc(Nc2cc3nc4ccccc4n(-c4ccc(F)cc4)c-3c/c2=N/CCCCC23CCCCN2CCCC3)cc1 the “Ratio IC50” value (Plasmodium falciparum [1]) was 1.6, the IC50 (Leishmania infantum) was 480 nM and the IC50 (Plasmodium falciparum [2]) was 390 nM. It also gave a Ratio IC50 [5] of 4.1, an IC50 (Plasmodium falciparum [3]) of 240 nM and a Ratio IC50 [6] of 8.2. It also gave an IC50 [7] of 1960 nM, a Ratio IC50 [8] of 5 and a Ratio IC50 [9] of 2.3. For the same molecule, the IC50 (Leishmania tropica) was 840 nM.
In the case of Cl.c1ccc(Nc2cc3nc4ccccc4n(-c4ccccc4)c-3c/c2=N/CCC23CCCN2CCC3)cc1, the “Ratio IC50” value (Plasmodium falciparum [1]) is reported as 0.9, the IC50 (Leishmania infantum) is reported as 910 nM and the IC50 (Plasmodium falciparum [2]) is reported as 290 nM. The Ratio IC50 [5] was 2.1, the IC50 (Plasmodium falciparum [3]) was 340 nM and the Ratio IC50 [6] was 5.5. For the same molecule, the IC50 [7] was 1900 nM, the Ratio IC50 [8] was 6.5 and the Ratio IC50 [9] was 1.7. The IC50 (Leishmania tropica) was 1100 nM.
